Values joined by “and” are separate entries in the source; they are usually repeats but may differ in a detail not shown here. Equal values may be shown once.

The values that follow come from paper PMC6512342 (Biochemical pharmacology, 2018).

One series relates to CYP2D6. The conditions noted are these: read-out: KM for BMAMC; CYP2D6-containing bacterial membranes; cited from earlier work.
Series [1] is described as follows: MDMA liver-to-blood ratio and liver concentration. The following applies: estimated from plasma peak and liver-to-blood ratio.
Series [2] deals with T1, human CYP2D6 (CYP2D6-incorporated proteoliposomes) (Homo sapiens, UniProt P10635). Kind of series: Substrate-induced spin shift titration, CYP2D6-PLS. Type of series: binding. The conditions noted are these: for Kd: dissociation constant (KD), spin shift titration.
Series [3] deals with T2, CYP2D6 (CYP2D6 Supersomes) (Homo sapiens, UniProt P10635). Kind of series: Spectroscopic study of MDMA-dependent MIC formation in CYP2D6-SS. The following applies: 100 μM MDMA, exponential fit. In kind it is biochemical.
Series [4] deals with T1, human CYP2D6 (CYP2D6-incorporated proteoliposomes). The experiment in a line: MDMA-dependent time-dependent inhibition.
Series [5] has as its target T2, CYP2D6 (CYP2D6 Supersomes). Kind of series: MDMA-dependent TDI in CYP2D6-SS with BMAMC as probe substrate. The conditions noted are these: 100 μM MDMA, exponential fit.
For series [6], the target named is T1, human CYP2D6 (CYP2D6-incorporated proteoliposomes). Kind of series: Spectroscopic study of MDMA-dependent MIC formation in CYP2D6-PLS. Type of series: biochemical.
Series [7] shares this target. Kind of series: MDMA utilization and DHMA formation in CYP2D6-PLS. In kind it is in vitro ADME.
A further series addresses human CYP2D6 (Homo sapiens, UniProt P10635). Kind of series: Substrate-induced spin shift titration, purified CYP2D6 in solution. In kind it is binding. The conditions noted are these: for maximal amplitude of the spin shift: purified CYP2D6 in solution.
The conditions of series [8]: healthy volunteers, recreational dose 100–150 mg; cited from earlier work.
In another series the test system is CYP3A4. The conditions noted are these: cited from earlier work.
Substrate in series [9]: CCCCNCc1cc(=O)oc2cc(OC)ccc12
Kind of series: Fluorometric determination of CYP2D6 activity with BMAMC in CYP2D6-SS. In kind it is biochemical, human. The conditions noted are these: other: CYP2D6-SS, 30 °C.

The mark [10] stands for this setting: CYP2D6-PLS, 100 μM MDMA, exponential fit.
Where [11] appears, read: kinetic model fit, kinetics of MIC formation.
[12] abbreviates: kinetic model fit, kinetics of DHMA production.

Consider `CCCCNCc1cc(=O)oc2cc(OC)ccc12` [BMAMC, N-butyl 7-methoxy-4-(aminomethyl)-coumarin], for which the Michaelis constant (Km) in the series with CYP2D6 was 1.5 µM.

`CNC(C)Cc1ccc2c(c1)OCO2` (stereo not drawn) [MDMA, 3,4-methylenedioxymethamphetamine]: in series [1], the “physiological concentration of MDMA in human liver” value is no more than 10 pM. Besides, in [2], the “maximal amplitude of the spin shift (Amax)” value was 8.1% and 10.9±5.5%. Further, the Kd was 24 µM and 27.9 µM in [2]; 23.9 µM in series [4]; 55.5 µM in [6] (kD, kinetic model fit, kinetics of MIC formation, k2/k1 with k1 fixed); 49.5 µM in series [7]; 21.8 ± 7.7 µM on human CYP2D6. The “Amax (MIC)” value is 49% in series [3] and 37% in series [6] (setting [10]). The “Kobs (MIC)” value was 0.19 min⁻¹ in series [3] and 0.085 min⁻¹ in series [6] (setting [10]). Moreover, the “reversibility of inactivation of CYP2D6” value in [4] (CYP2D6-PLS) was “reversible”. Further, the “Kobs (TDI)” value came out at 0.15 min⁻¹ in [4] (setting [10]) and 0.28 min⁻¹ in series [5]. Also, the “maximal depth of TDI at enzyme saturation with MDMA” value in series [4] (CYP2D6-PLS, DXM as probe substrate, Michaelis-Menten fit) was found to be 80±8%. For the same molecule, the “relative amplitude of TDI at MDMA saturation” value in series [4] (CYP2D6-PLS, rate of BMAMC metabolism) is “over 80%”. In addition, the k3 in [4] (kinetic model fit, TDI) amounted to 3.2 min⁻¹; in series [6] (setting [11]) it was 1.7 min⁻¹; in [7] (setting [12]), 3.9 min⁻¹. For the same molecule, the k4 in series [4] (kinetic model fit, TDI) is 0.085 min⁻¹; in series [6] (setting [11]), 0.167 min⁻¹; in series [7] (setting [12]) it was 0.14 min⁻¹. Moreover, the k5 in [4] (kinetic model fit, TDI) was determined as 0.033 min⁻¹; in series [6] (setting [11]) it was 0.027 min⁻¹; in [7] (setting [12]), 0.047 min⁻¹. Moreover, the k6 in series [4] (kinetic model fit, TDI, MDMA-independent inactivation) was determined as 0.005 min⁻¹; in series [7] (kinetic model fit, kinetics of DHMA production, MDMA-independent inactivation), 0.041 min⁻¹. Moreover, the Finact in series [4] (kinetic model fit, TDI, value fixed from MIC analysis) was 0.42; in [6] (kinetic model fit, kinetics of MIC formation, CYP2D6-PLS), 0.423 and 0.42; in series [7] (kinetic model fit, kinetics of DHMA production, value fixed from MIC analysis), 0.42. Moreover, in [6] (CYP2D6-PLS, saturating MDMA), the “maximal amplitude of MIC formation” value is 45 ± 3 % of the total P450 content. In addition, the “MDMA concentration after incubation” value in series [7] (CYP2D6-PLS with NADPH, 1 hour, initial 5 μM MDMA) was found to be 1.5 µM. The “decrease in MDMA concentration” value in series [7] (CYP2D6-PLS with NADPH, 1 hour, initial 100 μM MDMA) is given as ≤ 30 % of the initial concentration. Moreover, the “maximal amplitude of the spin shift” value on human CYP2D6 worked out at 6.0± 1.5%. Besides, the “peak concentration in blood plasma” value in series [8] is 1 pM.

Take `COc1ccc2c(c1)[C@]13CCCC[C@@H]1[C@H](C2)N(C)CC3` [DXM, Dextromethorphan]: in [2], the “maximal amplitude of the spin shift (Amax)” value was 25% and 24.7±0.4%; the dissociation constant Kd is 52 µM and 53.2 µM. Besides, at human CYP2D6, the Kd is 45.7 ± 3.1 µM and the “maximal amplitude of the spin shift” value is listed as 11.9±1.8%.

Consider `COc1cc([C@@H]2c3cc4c(cc3[C@H](O)[C@H]3COC(=O)[C@H]23)OCO4)cc(OC)c1OC` [podophylotoxin], for which, in the series on CYP3A4, the “reversibility of the Fe2+:carbene complex (MIC)” value was “virtually irreversible”.

B1: CYP2D6 (CYP2D6 Supersomes) (Homo sapiens) (protein)
chain: MGLEALVPLAVIVAIFLLLVDLMHRRQRWAARYPPGPLPLPGLGNLLHVDFQNTPYCFDQLRRRFGDVFSLQLAWTPVVVLNGLAAVREALVTHGEDTADRPPVPITQILGFGPRSQGVFLARYGPAWREQRRFSVSTLRNLGLGKKSLEQWVTEEAACLCAAFANHSGRPFRPNGLLDKAVSNVIASLTCGRRFEYDDPRFLRLLDLAQEGLKEESGFLREVLNAVPVLLHIPALAGKVLRFQKAFLTQLDELLTEHRMTWDPAQPPRDLTEAFLAEMEKAKGNPESSFNDENLRIVVADLFSAGMVTTSTTLAWGLLLMILHPDVQRRVQQEIDDVIGQVRRPEMGDQAHMPYTTAVIHEVQRFGDIVPLGVTHMTSRDIEVQGFRIPKGTTLITNLSSVLKDEAVWEKPFRFHPEHFLDAQGHFVKPEAFLPFSAGRRACLGEPLARMELFLFFTSLLQHFSFSVPTGQPRPSHHGVFAFLVSPSPYELCAVPR
B1: the Michaelis-Menten constant (Km) in [9] was 3.5 µM.

A word on the Km: it is the concentration of substrate that gives half-maximal velocity. One may read the Kd as the free concentration of one partner at which half of the binding sites on the other are occupied at equilibrium, for simple one-to-one binding.
